Drawing on ChEMBL document CHEMBL1130577, “Synthesis of irreversible HIV-1 protease inhibitors containing sulfonamide and sulfone as amide bond isosteres” (Bioorg Med Chem Lett, 1997), this text covers IC50, K inact/Ki and Ki for ten molecules.

Test [1] relates to H9. Put plainly: Inhibitory activity was evaluated against HIV-1 in H9 and Sup T1 cell lines as assessed by syncytium formation and reverse transcriptase assay. Conditions: Homo sapiens; call rule not given here. The format is functional, cell-based.
The target in test [2] is Human immunodeficiency virus type 1 protease (Human immunodeficiency virus 1) (UniProt Q72874). The experiment in a line: Bimolecular rate constant for the formation of HIV-1 protease complex was evaluated.
The target in test [3] is Human immunodeficiency virus type 1 protease (Human immunodeficiency virus 1, UniProt Q72874). The experiment in a line: Compound was tested for its inhibitory activity against HIV-1 protease.
The target of a further test is Cathepsin D (Homo sapiens, UniProt P07339). The experiment in a line: Inhibition against human cathepsin D was determined.
A further test addresses T1, Renin (Homo sapiens, UniProt P00797).
T1 sequence (P00797 whole entry): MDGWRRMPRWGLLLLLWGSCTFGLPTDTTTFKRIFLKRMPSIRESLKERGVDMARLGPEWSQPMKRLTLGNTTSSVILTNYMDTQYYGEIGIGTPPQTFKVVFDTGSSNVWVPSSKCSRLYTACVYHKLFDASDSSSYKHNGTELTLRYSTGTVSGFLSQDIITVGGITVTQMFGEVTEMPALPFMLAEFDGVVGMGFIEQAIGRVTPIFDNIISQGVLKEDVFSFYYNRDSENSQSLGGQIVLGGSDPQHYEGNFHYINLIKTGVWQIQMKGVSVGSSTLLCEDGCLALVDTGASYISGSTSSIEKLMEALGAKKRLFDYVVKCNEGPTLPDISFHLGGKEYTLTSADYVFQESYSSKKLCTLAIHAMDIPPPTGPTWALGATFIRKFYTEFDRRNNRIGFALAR
Put plainly: Inhibition against human renin was determined; IA means inactive.

In test [4] the test system is H9. Put plainly: Inhibitory activity was evaluated against HIV-1 protease by using reverse transcription assay. In kind it is functional, cell-based. The settings on record: Homo sapiens.

Chain of Cathepsin D (P07339 65-162 limits assumed): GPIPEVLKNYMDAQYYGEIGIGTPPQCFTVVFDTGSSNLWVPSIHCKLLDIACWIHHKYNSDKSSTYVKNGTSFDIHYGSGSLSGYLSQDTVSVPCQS
Chain of Cathepsin D (P07339 169-412 limits assumed): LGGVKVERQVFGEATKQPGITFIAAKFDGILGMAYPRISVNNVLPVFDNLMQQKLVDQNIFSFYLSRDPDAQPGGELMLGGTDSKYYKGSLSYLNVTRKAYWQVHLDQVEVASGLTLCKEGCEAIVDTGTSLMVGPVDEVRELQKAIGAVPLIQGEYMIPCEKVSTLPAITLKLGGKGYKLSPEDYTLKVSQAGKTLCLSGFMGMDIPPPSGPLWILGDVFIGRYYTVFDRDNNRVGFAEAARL

In the test with H9 [1], `CCN(CC(C)C)S(=O)(=O)CC[C@@H]1O[C@@H]1[C@H](Cc1ccccc1)NC(=O)[C@@H](NC(=O)OCc1ccccc1)C(C)(C)S(C)(=O)=O` gave an IC50 of 10.7 nM. This molecule had a K inact/Ki in test [2] of 1.15e+06 M⁻¹ s⁻¹. In addition, the inhibition constant (Ki) in test [3] is 2.9 nM.

`CC(C)N(C(=O)c1ccccc1)S(=O)(=O)CC[C@@H]1O[C@@H]1[C@H](Cc1ccccc1)NC(=O)[C@@H](NC(=O)OCc1ccccc1)C(C)(C)S(C)(=O)=O` gave an IC50 in the test on H9 [1] of 15 nM. Also, the K inact/Ki in test [2] was found to be 917000 M⁻¹ s⁻¹. This molecule also gave an inhibition constant (Ki) in test [3] of 3.6 nM.

`CC(C)(C)NS(=O)(=O)CC[C@@H]1O[C@@H]1[C@H](Cc1ccccc1)NC(=O)C(CC(N)=O)NC(=O)c1ccc2ccccc2n1` (stereo partly specified): in the test on H9 [1], the half-maximal inhibitory concentration (IC50) was 30 nM. This molecule also returned a K inact/Ki in test [2] of 250000 M⁻¹ s⁻¹. The molecule also came in with an inhibition constant Ki in test [3] of 12.6 nM.

Turning to `CCN(C(C)C)S(=O)(=O)CC[C@@H]1O[C@@H]1[C@H](Cc1ccccc1)NC(=O)[C@@H](NC(=O)c1ccc2ccccc2n1)C(C)(C)S(C)(=O)=O`, the IC50 at Cathepsin D was 8200 nM; with H9 [1], 6.6 nM; against Renin it was “Not Active”. In test [2], this molecule came in with a K inact/Ki of 483000 M⁻¹ s⁻¹. In test [3], this molecule gave a Ki of 7 nM.

The molecule `CC(C)(C)NS(=O)(=O)CC[C@@H]1O[C@@H]1[C@H](Cc1ccccc1)NC(=O)[C@@H](NC(=O)OCc1ccccc1)C(C)(C)S(C)(=O)=O` came in with an IC50 in the test on H9 [1] of 20.2 nM. The K inact/Ki in test [2] came to 1.33e+06 M⁻¹ s⁻¹. The same molecule returned a Ki in test [3] of 0.7 nM.

`CCN(c1ccccc1)S(=O)(=O)CC[C@@H]1O[C@@H]1[C@H](Cc1ccccc1)NC(=O)[C@@H](NC(=O)c1ccc2ccccc2n1)C(C)(C)S(C)(=O)=O`: the IC50 in the test with H9 [1] was 10.7 nM. Also, the K inact/Ki in test [2] stood at 650000 M⁻¹ s⁻¹. Besides, the affinity in test [3], expressed as Ki, was 5 nM.

In the test on H9 [1], `CCN(C(C)C)S(=O)(=O)CC[C@@H]1O[C@@H]1[C@H](Cc1ccccc1)NC(=O)[C@@H](NC(=O)c1cccs1)C(C)(C)S(C)(=O)=O` had an IC50 of 18.2 nM. In test [2], the K inact/Ki stood at 1.05e+06 M⁻¹ s⁻¹. In test [3], this molecule had a Ki of 3.1 nM.

As to `CCN(c1ccccc1)S(=O)(=O)CC[C@@H]1O[C@@H]1[C@H](Cc1ccccc1)NC(=O)[C@@H](NC(=O)OCc1ccccc1)C(C)(C)S(C)(=O)=O`, the half-maximal inhibitory concentration (IC50) in the test on H9 [1] is 13.8 nM. In test [2], this molecule gave a K inact/Ki of 717000 M⁻¹ s⁻¹. The inhibition constant (Ki) in test [3] came to 4.6 nM.

Consider `CC(C)C(NC(=O)C[C@@H]1O[C@@H]1[C@H](Cc1ccccc1)NC(=O)[C@H](CC(N)=O)NC(=O)c1ccc2ccccc2n1)C(C)C`, for which the IC50 with H9 [1] was 20 nM. The same molecule came in with a K inact/Ki in test [2] of 3.33e+06 M⁻¹ s⁻¹.

Take `CCN(C(C)C)S(=O)(=O)CC[C@@H]1O[C@@H]1[C@H](Cc1ccccc1)NC(=O)[C@@H](NC(=O)OCc1ccccc1)C(C)(C)S(C)(=O)=O`: in the test with H9 [4], the IC50 was determined as 10.9 nM. Moreover, in test [2], the K inact/Ki turned out to be 1.63e+06 M⁻¹ s⁻¹. For the same molecule, affinity in test [3] was put at a Ki of 0.8 nM.

For orientation: IC50 means the point on the concentration scale where inhibition reaches its midpoint. High values mean a need for much substance, low ones inhibition by little substance. The Ki is the equilibrium dissociation constant of an inhibitor or competing ligand from its target. Higher therefore signals a looser hold on the target.
